Reference: patent publication US10226452B2, “Benzoxazolone derivatives as acid ceramidase inhibitors, and their use as medicaments” (FONDAZIONE ISTITUTO ITALIANO DI TECNOLOGIA, priority 2014, dated 2019)

Assays:
A375 cells = assay: ceramide levels in A375 human melanoma cells; assay type: cell-based; details: 25 μM
Experimental: Specifically, FIG. 1 evidences the effects of compound of Example 7 or vehicle (0.1% DMSO in DMEM) on AC activity and ceramide levels in A375 (left panel) or MeWo (right panel) human melanoma cell lines. (A-B) Intact cells were treated with compound of Example 7 (25 μM) or vehicle and AC activity was measured 30 minutes or 3 hours later in cell lysates. (B) Intact cells were exposed to compound of Example 7 (25 μM) for 2 hours or 24 hours and medium chain ceramides (C-D), long chain ceramides (E-F) and dihydroceramides (G-H) were quantified. Results are expressed as mean±s.e.m. (n=3). *p<0.05, **p<0.01, ***p<0.001 vs vehicle, two-way ANOVA followed by Dunnet.
Lipids were extracted from mouse tissue lysate with a chloroform/MeOH mixture (2:1 v/v, 3 mL) containing internal standards. The organic phase was collected, dried under nitrogen, and dissolved in chloroform/MeOH (1:3 v/v) for LC-MS analyses. Ceramides, sphingosine and sphinganine were analyzed by LC-MS/MS, using a Waters Acquity UPLC coupled with a Waters Xevo TQMS and interfaced with ESI. Separation was done on a Waters Acquity BEH C18 1.7 μm column (2.1×50 mm) at 60° C. A step gradient of 0.1% formic acid in acetonitrile/water (20:80 v/v) as solvent A and 0.1 formic acid in acetonitrile/isopropyl alcohol (20:80 v/v) as solvent B was applied at a flow rate of 0.4 mL/min. Detection was in the positive ionization mode. Capillary voltage was 3.5 kV and cone voltage was 25 V. The source temperature and desolvation temperatures were set at 120° C. and 600° C. respectively. […]
Tissue-derived ceramides were identified by comparison of their LC retention times and MS^2 fragmentation patterns with those of authentic standards (Avanti Polar Lipids). Extracted ion chromatograms were used to quantify myristoyl ceramide (C14:0, m/z 510.5>492.5>264.3), palmitoyl ceramide (C16:0, m/z 538.5>520.3>264.3), stearoyl ceramide (C18:0 m/z 566.5>548.3>264.3), lignoceroyl ceramide (C24:0 m/z 650.5>632.3>264.3), nervonoyl ceramide (C24:1 m/z 648.5>630.3>264.3) and using lauroyl ceramide standard (m/z 482.5>464.5>264.3). […]

sPLA2 (h) (type V) = sPLA2 (h) (type V) (Homo sapiens (Human), UniProt P39877); assay: Cerep enzyme inhibition screen: sPLA2; assay type: biochemical; details: mean of two determinations, read-out: Inhibitory activity (% Inh. at 10 μM), mean
Source text: (§1) Compound of Example 25 falling in both Formula (I) and (Ia) was selected to be tested for off-target effects on a set of enzymes that include proteases (aspartic, cysteine, and serine), cyclooxygenases as well as lipoxygenases and group IV phospholipase (sPLA2) (Table 3). [table]

cathepsin D (h) = cathepsin D (h) (Homo sapiens (Human), UniProt P07339); assay: Cerep enzyme inhibition screen: cathepsin D; assay type: biochemical; details: mean of two determinations, read-out: Inhibitory activity (% Inh. at 10 μM), mean
Source text: as §1

caspase-3 (h) = caspase-3 (h) (Homo sapiens (Human), UniProt P42574); assay: Cerep enzyme inhibition screen: caspase-3; assay type: biochemical; details: mean of two determinations, read-out: Inhibitory activity (% Inh. at 10 μM), mean
Source text: as §1

caspase-8 (h) = caspase-8 (h) (Homo sapiens (Human), UniProt Q14790); assay: Cerep enzyme inhibition screen: caspase-8; assay type: biochemical; details: mean of two determinations, read-out: Inhibitory activity (% Inh. at 10 μM), mean
Source text: as §1

cathepsin B (h) = cathepsin B (h) (Homo sapiens (Human), UniProt P07858); assay: Cerep enzyme inhibition screen: cathepsin B; assay type: biochemical; details: mean of two determinations, read-out: Inhibitory activity (% Inh. at 10 μM), mean
Source text: as §1

MMP-2 (h) = MMP-2 (h) (Homo sapiens (Human), UniProt P08253); assay: Cerep enzyme inhibition screen: MMP-2; assay type: biochemical; details: mean of two determinations, read-out: Inhibitory activity (% Inh. at 10 μM), mean
Source text: as §1

SW403 cells [1] = assay: sphingosine and ceramide levels in SW403 cells; assay type: cell-based, human; details: 0.1-20 μM, 3 hours
Experimental: (A) Intact cells were treated with compound of Example 25 (0.1-20 μM) or vehicle and AC activity was measured 3 hours later in cell lysates. (B-E) Intact cells were exposed to compound of Example 25 (0.1-20 μM) for 3 hours and sphingosine/sphinganine (B), dihydroceramides (C), medium chain ceramides (D), long chain ceramides (E) were quantified. Results are expressed as mean±s.e.m. (n=3). *p<0.05, **p<0.01, ***p<0.001 vs vehicle, two-way ANOVA followed by Dunnet.
(A) Intact cells were treated with compound of Example 25 (20 μM) or vehicle and AC activity was measured 1 to 48 hours later in cell lysates. (B-E) Intact cells were exposed to compound of Example 25 (20 μM) and sphingosine (B), C16:0 dihydroceramide (C), C16:0 ceramide (D) were quantified. Results are expressed as mean±s.e.m. […]
Lipids were extracted from mouse tissue lysate with a chloroform/MeOH mixture (2:1 v/v, 3 mL) containing internal standards. […] Ceramides, sphingosine and sphinganine were analyzed by LC-MS/MS, using a Waters Acquity UPLC coupled with a Waters Xevo TQMS and interfaced with ESI. […]
Tissue-derived sphingosine and sphinganine were identified by comparison of their LC retention times and MS^2 fragmentation patterns with those of authentic standards (Avanti Polar Lipids). Extracted ion chromatograms were used to quantify sphingosine ([…], m/z 300.5>282.5) and sphinganine standard (C18:0, m/z 303>285). […]

SW403 cells [2] = test system: SW403 cells
Source text: Combinatory index calculation of cell viability data analyzed with CompuSyn Software. The resulting combination index (CI) offers quantitative definition for additive effect (CI=1), synergism (CI<1), and antagonism (CI>1) in drug combinations. Results are expressed as mean±s.e.m. (n=8-16) of three independent experiments.
Finally, the CellTiter-Glo® Luminescent Cell Viability Assay can be used to determine the number of viable cells in culture based on quantitation of the ATP present, which signals the presence of metabolically active cells. Briefly, a volume of CellTiter-Glo® Reagent equal to the volume of cell culture medium present in each well is added to 96-well plates after drug treatment. Contents are mixed for 2 minutes on an orbital shaker to induce cell lysis and plate was incubated at room temperature for 10 minutes to stabilize signal before reading luminescence.
The compounds were added to the cultures once every 24 hours over a period of 72 hours and the effects of the combined treatments were evaluated using CompuSyn Software.

caspase-8 (h), sequence (Q14790 217-374): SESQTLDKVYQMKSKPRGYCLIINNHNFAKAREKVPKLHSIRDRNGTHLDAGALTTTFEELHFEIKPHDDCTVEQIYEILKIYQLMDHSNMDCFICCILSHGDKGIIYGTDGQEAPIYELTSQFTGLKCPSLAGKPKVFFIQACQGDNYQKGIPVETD
caspase-8 (h), sequence (Q14790 385-479): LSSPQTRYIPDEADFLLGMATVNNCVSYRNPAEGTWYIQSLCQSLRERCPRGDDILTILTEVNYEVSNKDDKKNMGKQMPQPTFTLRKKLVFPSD
caspase-3 (h), sequence (P42574 29-175): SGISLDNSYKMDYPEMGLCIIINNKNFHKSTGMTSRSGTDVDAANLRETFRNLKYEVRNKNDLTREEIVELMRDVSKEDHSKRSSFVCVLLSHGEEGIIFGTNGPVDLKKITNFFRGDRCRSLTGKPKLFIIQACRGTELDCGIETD
caspase-3 (h), sequence (P42574 176-277): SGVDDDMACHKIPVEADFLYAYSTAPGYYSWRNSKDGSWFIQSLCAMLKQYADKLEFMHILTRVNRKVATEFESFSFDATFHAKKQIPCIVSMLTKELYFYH
MMP-2 (h), sequence (P08253 110-660): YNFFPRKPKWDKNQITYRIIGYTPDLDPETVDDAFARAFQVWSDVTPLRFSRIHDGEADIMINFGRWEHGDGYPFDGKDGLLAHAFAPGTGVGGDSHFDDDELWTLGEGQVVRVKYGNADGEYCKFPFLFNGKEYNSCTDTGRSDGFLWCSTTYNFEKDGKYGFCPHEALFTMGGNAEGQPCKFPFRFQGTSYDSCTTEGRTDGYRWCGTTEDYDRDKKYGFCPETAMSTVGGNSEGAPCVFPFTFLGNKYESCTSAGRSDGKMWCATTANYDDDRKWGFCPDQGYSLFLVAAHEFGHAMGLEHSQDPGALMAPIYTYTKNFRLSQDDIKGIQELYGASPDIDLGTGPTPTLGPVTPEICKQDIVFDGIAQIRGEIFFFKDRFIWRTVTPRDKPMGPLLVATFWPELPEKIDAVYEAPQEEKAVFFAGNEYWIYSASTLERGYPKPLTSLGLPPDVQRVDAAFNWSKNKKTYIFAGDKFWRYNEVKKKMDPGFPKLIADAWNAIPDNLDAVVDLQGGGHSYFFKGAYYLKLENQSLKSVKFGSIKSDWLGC
cathepsin D (h), sequence (P07339 65-412): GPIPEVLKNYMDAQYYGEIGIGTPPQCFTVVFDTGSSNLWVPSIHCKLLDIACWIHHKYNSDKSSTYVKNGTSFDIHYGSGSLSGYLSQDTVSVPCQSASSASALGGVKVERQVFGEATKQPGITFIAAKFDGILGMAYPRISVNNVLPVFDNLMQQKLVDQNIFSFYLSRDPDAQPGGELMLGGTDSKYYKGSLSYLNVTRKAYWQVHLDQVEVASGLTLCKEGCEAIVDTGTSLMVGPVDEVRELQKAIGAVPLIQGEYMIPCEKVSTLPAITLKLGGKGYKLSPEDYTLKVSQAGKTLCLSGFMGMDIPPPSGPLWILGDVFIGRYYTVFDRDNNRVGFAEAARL
sPLA2 (h) (type V), sequence (P39877 21-138): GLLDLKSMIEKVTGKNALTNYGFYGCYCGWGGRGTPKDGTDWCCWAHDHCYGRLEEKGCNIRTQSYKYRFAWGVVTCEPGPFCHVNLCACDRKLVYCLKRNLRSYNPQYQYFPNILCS

## O=C(NCCCCc1ccccc1)n1c(=O)oc2cc(Br)ccc21 [Example 7, 6-Bromo-2-oxo-N-(4-phenylbutyl)-1,3-benzoxazole-3-carboxamide]
A375 cells; A375 cells (low AC expression)
  duration of effects on ceramide levels: lasted up to 24 hours
A375 cells; A375 cells
  di-hydro ceramide species levels: significant increase in all di-hydro ceramide species analyzed
A375 cells; A375 cells, LC/MS
  ceramide species levels (cer(d18:1/14:0), cer(d18:1/16:0), cer(d18:1/18:0), cer(d18:1/24:1)): intracellular accumulation of various ceramide species

## O=C(NCCCCc1ccccc1)n1c(=O)oc2cc(-c3ccc(F)cc3)ccc21 [Example 25, 6-(4-Fluorophenyl)-2-oxo-N-(4-phenylbutyl)-1,3-benzoxazole-3-carboxamide]
sPLA2 (h) (type V)
  inhibition at 10 µM: 1.1%
Cathepsin D (h)
  inhibition at 10 µM: 67%
caspase-3 (h)
  inhibition at 10 µM: 1.9%
caspase-8 (h)
  inhibition at 10 µM: -0.9%
Cathepsin B (h)
  inhibition at 10 µM: 9.9%
MMP-2 (h)
  inhibition at 10 µM: 7.2%
SW403 cells [1]
  di-hydro ceramides and ceramide species levels: intracellular accumulation of various di-hydro ceramides and ceramide species
  sphingosine levels: parallel decrease in sphingosine levels
SW403 cells [2]
  interaction with 5-FU on SW403 cell viability (combinatory index analysis): acted synergistically with 5-FU
